Laboratory results taken from US20240182503A1, “MACROCYCLE COMPLEMENT FACTOR B INHIBITORS” (priority 2021, published 2024).

Each compound was assayed against CVF-Bb complex (Homo sapiens (Human), UniProt P00751) (assay: biochemical). Conditions: not given.
Format: biochemical
Experimental: CVF-Bb complex, prepared from purified cobra venom factor, (3 nM) is incubated with a compound of the disclosure at various concentrations for 10 minutes at room temperature in PBS (pH 7.4) containing 10 mM MgCl2 and 0.05% (w/v) CHAPS. Human Complement C3 substrate is added to a final concentration of 1 μM. After 1 hour incubation at room temperature, the enzyme reaction is stopped by addition of a cocktail of concentrated pan-protease inhibitors. The product of the reaction, C3a, is quantified by means of an enzyme-linked-immunosorbent assay and/or denaturing gel electrophoresis (SDS-PAGE). IC50 values are calculated from percentage of inhibition of CVF-Bb activity as a function of test compound concentration.

Row | Compound | IC50 [nM]
1 | COc1cc(C)c2[nH]ccc2c1CN1CC[C@@H]2C[C@@H]1c1ccc(C(=O)O)cc1OCC/C=C\CO2 [Ex. 42, (1^2R,1^4R,Z)-1^1-((5-methoxy-7-methyl-1H-indol-4-yl)methyl)-3,9-dioxa-1(2,4)-piperidina-2(1,2)-benzenacyclononaphan-6-ene-2^4-carboxylic acid] | 1060
2 | Cc1cc2c(c3cc[nH]c13)CN1CC[C@@H](C[C@H]1c1ccc(C(=O)O)cc1)OCCCCCCCO2 [Ex. 25, 4-((3^2R,3^4R)-1^7-methyl-1^1H-4,12-dioxa-1(4,5)-indola-3(1,4)-piperidinacyclododecaphane-3^2-yl)benzoic acid] | > 10000
3 | COc1cc(C)c2[nH]ccc2c1CN1CC[C@H]2C[C@H]1c1ccc(C(=O)O)cc1/C=C\CCCCCO2 [Ex. 37, (1^2R,1^4R,Z)-1^1-((5-methoxy-7-methyl-1H-indol-4-yl)methyl)-10-oxa-1(2,4)-piperidina-2(1,2)-benzenacyclodecaphan-3-ene-2^4-carboxylic acid] | 263
4 | CCO[C@H]1CCN2Cc3c(cc(C)c4[nH]ccc34)OCCCCCCCCCCOc3cc(C(=O)O)ccc3[C@@H]2C1 [Ex. 32, (21bS,23S)-23-ethoxy-4-methyl-7,8,9,10,11,12,13,14,15,16,21b,22,23,24,25,2 7-hexadecahydro-3H-benzo[7,8]pyrido[1′,2′:5,6][1,9,5]dioxaazacyclo-nonadecino[3,2-e]indole-19-carboxylic acid] | > 10000
5 | COc1cc(C)c2[nH]ccc2c1CN1CC[C@H]2C[C@H]1c1ccc(C(=O)O)cc1/C=C/CCCCCCO2 [Ex. 38, (1^2R,1^4R,E)-11-((5-methoxy-7-methyl-1H-indol-4-yl)methyl)-1^1-oxa-1(2,4)-piperidina-2(1,2)-benzenacycloundecaphan-3-ene-2^4-carboxylic acid] | 160
6 | Cc1cc2c(c3cc[nH]c13)CN1CC[C@@H](C[C@H]1c1ccc(C(=O)O)cc1)OCCCCCCCCCO2 (racemic) [Ex. 34, rac-4-((3^2R,3^4R)-1^7-methyl-11H-4,14-dioxa-1(4,5)-indola-3(1,4)-piperidinacyclotetradecaphane-3^2-yl)benzoic acid] | > 10000
7 | COc1cc(C)c2[nH]ccc2c1CN1CC[C@H]2CC1c1ccc(C(=O)O)cc1CCCCCCCO2 [Ex. 39, (1^2S,1^4RS)-1^1-((5-methoxy-7-methyl-1H-indol-4-yl)methyl)-10-oxa-1(2,4)-piperidina-2(1,2)-benzenacyclodecaphane-2^4-carboxylic acid] | 251

Same assay, conditions: read-out: IC50

Row | Compound | IC50 [nM]
8 | COc1cc(C)c2[nH]ccc2c1CN1CC[C@H]2C[C@H]1c1ccc(C(=O)NS(C)(=O)=O)cc1/C=C\CCCCCO2 [Ex. 68, (1^2S,1^4S,Z)-1^1-((5-methoxy-7-methyl-1H-indol-4-yl)methyl) —N-(methylsulfonyl)-10-oxa-1(2,4)-piperidina-2(1,2)-benzenacyclodecaphan-3-ene-24-carboxamide] | 674
9 | COc1cc(C)c2[nH]ccc2c1CN1CC[C@H]2C[C@H]1c1ccc(C(=O)NS(C)(=O)=O)cc1CCCCCCCO2 [Ex. 71, (1^2S,1^4S)-1^1-((5-methoxy-7-methyl-1H-indol-4-yl)methyl)-N-(methylsulfonyl)-10-oxa-1(2,4)-piperidina-2(1,2)-benzenacyclodecaphane-2^4-carboxamide] | 258
10 | COc1cc(C)c2[nH]ccc2c1CN1CC[C@H]2C[C@H]1c1ccc(C(=O)NS(C)(=O)=O)cc1/C=C/CCCCCO2 [Ex. 69, (1^2S,1^4S,E)-1^1-((5-methoxy-7-methyl-1H-indol-4-yl)methyl)-N-(methylsulfonyl)-10-oxa-1(2,4)-piperidina-2(1,2)-benzenacyclodecaphan-3-ene-2^4-carboxamide] | 581
11 | COc1cc(C)c2[nH]ccc2c1CN1CCC2CC1c1ccc(C(=O)O)c3ccc(cc13)OCCCCCCO2 (stereo not drawn) [Ex. 52, (1^2R,1^4R)-1^1-((5-methoxy-7-methyl-1H-indol-4-yl)methyl)-3,10-dioxa-1(2,4)-piperidina-2(1,7)-naphthalenacyclodecaphane-2^4-carboxylic acid] | > 10000
12 | COc1cc(C)c2[nH]ccc2c1CN1CC[C@H]2C[C@H]1c1ccc(C(=O)NS(=O)(=O)C3(C)CC3)cc1OCCCCCO2 [Ex. 67, (1^2S,1^4S)-1^1-((5-methoxy-7-methyl-1H-indol-4-yl)methyl)-N-((1-methylcyclopropyl)sulfonyl)-3,9-dioxa-1(2,4)-piperidina-2(1,2)-benzenacyclononaphane-2^4-carboxamide] | 330
13 | COc1cc(C)c2[nH]ccc2c1CN1CC[C@H]2C[C@H]1c1ccc(C(=O)NS(=O)(=O)C3CCCC3)cc1OCCCCCO2 [Ex. 61, (1^2S,1^4S)—N-(cyclopentylsulfonyl)-1^1-((5-methoxy-7-methyl-1H-indol-4-yl)methyl)-3,9-dioxa-1(2,4)-piperidina-2(1,2)-benzenacyclononaphane-2^4-carboxamide] | 331
14 | COc1cc(C)c2[nH]ccc2c1CN1CC[C@H]2C[C@H]1c1ccc(C(=O)NS(C)(=O)=O)c3ccc(cc13)OCCCCCCO2 [Ex. 56, (1^2S,1^4S)-1^1-((5-methoxy-7-methyl-1H-indol-4-yl)methyl)-N-(methylsulfonyl)-3,10-dioxa-1(2,4)-piperidina-2(1,7)-naphthalenacyclodecaphane-2^4-carboxamide] | 375
15 | (1^2S,1^4S)-N-(ethylsulfonyl)-1^1-((5-methoxy-7- methyl-1H-indol-4-yl)methyl)-3,10-dioxa- 1(2,4)-piperidina-2(1,2)- benzenacyclodecaphane-2^4-carboxamide [Ex. 45] | 396
16 | (1^2S,1^4S,E)-1^1-((5-methoxy-7-methyl-1H-indol-4-yl)methyl)-3,10-dioxa-1(2,4)-piperidina-2(1,7)-naphthalenacyclodecaphan-7-ene-2^4-carboxylic acid [Ex. 53] | > 10000
17 | COc1cc(C)c2[nH]ccc2c1CN1CC[C@H]2C[C@H]1c1ccc(C(=O)O)cc1OCCn1cc(nn1)CO2 [Ex. 12, (2^2S,2^4S,Z)-2^1-((5-methoxy-7-methyl-1H-indol-4-yl)methyl)-5′H-3,8-dioxa-2(2,4)-piperidina-5(4,1)-triazola-1(1,2)-benzenacyclooctaphane-1^4-carboxylic acid] | 280
18 | COc1cc(C)c2[nH]ccc2c1CN1CC[C@H]2C[C@H]1c1ccc(C(=O)NO)cc1OCCCCCCO2 [Ex. 63, (1^2S,1^4S)—N-hydroxy-1^1-((5-methoxy-7-methyl-1H-indol-4-yl)methyl)-3,10-dioxa-1(2,4)-piperidina-2(1,2)-benzenacyclodecaphane-2^4-carboxamide] | 2450
19 | COc1cc(C)c2[nH]ccc2c1CN1CC[C@@H]2CCCCCCCOc3cc(C(=O)O)ccc3[C@@H]1C2 [Ex. 77, (1^2S,1^4S)-1^1-((5-methoxy-7-methyl-1H-indol-4-yl)methyl)-3-oxa-1(2,4)-piperidina-2(1,2)-benzenacyclodecaphane-2^4-carboxylic acid] | 85.6
20 | COc1cc(C)c2[nH]ccc2c1CN1CC[C@H]2C[C@H]1c1ccc(C(=O)O)cc1OCCCCCO2 [Ex. 8, (1^2S,1^4S)_1^1-((5-methoxy-7-methyl-1H-indol-4-yl)methyl)-3,9-dioxa-1(2,4)-piperidina-2(1,2)-benzenacyclononaphane-2^4-carboxylic acid] | 397
21 | COc1cc(C)c2[nH]ccc2c1CN1CC[C@H]2CCCCCCCOc3cc(C(=O)O)ccc3[C@@H]1C2 [Ex. 78, (1^2S,1^4R)-1^1-((5-methoxy-7-methyl-1H-indol-4-yl)methyl)-3-oxa-1(2,4)-piperidina-2(1,2)-benzenacyclodecaphane-2^4-carboxylic acid] | 731
